Our source for the IC50, Ki and Kd values is ChEMBL document CHEMBL5104128, “The discovery of a non-competitive GOT1 inhibitor, hydralazine hydrochloride, via a coupling reaction-based high-throughput screening assay” (Bioorg Med Chem Lett, 2022).

Where a name gives a salt, the structure may show the parent alone. A value given as a limit tells only on which side of the number the result lay.

Usually IC50 stands for the concentration needed to halve the response being measured. The Ki is a dissociation constant, usually derived from enzyme kinetics or from competition with a known ligand. By Kd is commonly meant the constant that tells how readily two partners part at equilibrium.

The target in test [1] is T1, Aspartate aminotransferase, cytoplasmic (Homo sapiens, UniProt P17174). As to the kind of experiment: Inhibition of GOT1 (unknown origin).
T1 sequence (P17174 whole entry): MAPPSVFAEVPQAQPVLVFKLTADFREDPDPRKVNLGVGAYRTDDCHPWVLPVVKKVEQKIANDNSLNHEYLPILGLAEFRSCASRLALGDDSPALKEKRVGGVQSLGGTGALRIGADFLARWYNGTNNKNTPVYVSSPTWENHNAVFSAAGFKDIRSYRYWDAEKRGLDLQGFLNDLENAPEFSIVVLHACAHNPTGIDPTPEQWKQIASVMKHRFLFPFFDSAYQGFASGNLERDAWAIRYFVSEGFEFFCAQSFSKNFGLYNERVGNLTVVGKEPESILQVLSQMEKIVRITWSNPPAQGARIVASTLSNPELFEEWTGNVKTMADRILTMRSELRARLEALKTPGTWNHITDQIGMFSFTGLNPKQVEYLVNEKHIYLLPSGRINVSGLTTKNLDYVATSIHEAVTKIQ
For test [2], the target named is T1, Aspartate aminotransferase, cytoplasmic. Kind of test: Inhibition of GOT1 (unknown origin) using aspartic acid and alpha-ketoglutaric acid as substrates assessed as reduction in absorbance of NADH incubated for 20 mins in presence of MDH1 and NADH by HTS assay.
For test [3] the target is unchanged. Kind of test: Inhibition of human recombinant GOT1 using aspartic acid and alpha-ketoglutaric acid as substrates incubated in presence of MDH1 and NADH.
For test [4] the target is unchanged. Kind of test: Inhibition of C-terminal His6-tagged human recombinant GOT1 expressed in Escherichia coli BL21 (DE3) cells using aspartic acid and alpha-ketoglutaric acid as substrates incubated in presence of MDH1 and NADH.
Test [5] shares this target. As to the kind of experiment: Noncompetitive inhibition of GOT1 (unknown origin) using alpha-Ketoglutaric acid as substrate assessed as inhibition constant by Michaelis-Menten equation based kinetic analysis.
For test [6] the target is unchanged. Kind of test: Noncompetitive inhibition of GOT1 (unknown origin) using aspartic acid as substrate assessed as inhibition constant by Michaelis-Menten equation based kinetic analysis.
For test [7] the target is unchanged. Kind of test: Binding affinity to GOT1 (unknown origin) assessed as dissociation constant by microscale thermophoresis assay.

As for `O=C1Cc2cc(CCN3CCN(c4nsc5ccccc45)CC3)c(Cl)cc2N1` [ZIPRASIDONE], in test [1], the IC50 was 5.39 µM.

As for `Nc1cccnn1`, in test [2], the IC50 is above 100 µM. Take `CC(C)=CCc1cc(/C=C2\OC(=O)C(c3cc(CC=C(C)C)c(O)cc3O)=C2O)ccc1O`: in test [3], the IC50 amounted to 2.92 µM. Consider `NC1Cc2ccccc2N(O)C1=O` (centres undefined), for which the IC50 in test [1] was determined as 8 µM. Turning to `NNc1nncc2ccccc12` [HYDRALAZINE], in test [2], the IC50 was 26.6 µM. On the same count and under the same terms, the figure for `Nc1cccc2cnncc12` is above 100 µM. Take `COc1ccc(-c2ccc3cc(C(=O)O)ccc3c2)cc1C12CC3CC(CC(C3)C1)C2` [ADAPALENE]: the 50% inhibitory concentration (IC50) in test [4] turned out to be 21.8 µM.

For `NNc1cccnn1`, in test [2], the half-maximal inhibitory concentration (IC50) came to 29.4 µM. In the case of `NNc1nnc(Cl)c2ccccc12`, in test [2], the IC50 came out at 65.4 µM. Consider `NNc1nnc(NN)c2ccccc12` [DIHYDRALAZINE], for which the IC50 in test [2] was above 100 µM. With `NNc1nncc2ccccc12` [HYDRALAZINE HYDROCHLORIDE], the inhibition constant (Ki) in test [5] was found to be 20.2 µM; in test [6], 14.7 µM. For the same compound, in test [1], the midpoint of inhibition, the IC50, lay at 26.6 µM. Besides, the Kd in test [7] was 16.5 µM.
